# In patent publication US12194048B2, “Use of pyrrolopyridine derivatives for preventing or treating inflammatory diseases” (VORONOI CO., LTD., priority 2020, dated 2025):
# Columns and labels:
# [1] = test system: IMQ-induced psoriasis-like skin inflammation model; assay: Topical treatment in imiquimod (IMQ)-induced psoriasis-like skin inflammation; type: in vivo, BALB/c mice; conditions: 0.15% topical; during the study period
# Method: Dexamethasone (0.15%), the reference compound, was applied topically at 20 μL/mouse on the right ear once daily (QD) during the same study period.
# Fifteen (15) mg imiquimod (IMQ) cream (5%) (Aldara; 3M Pharmaceuticals) was topically administered once daily (QD) on the right ear one hour after treatment from Day 1 to Day 9 for 9 consecutive days, translating to a daily dose of 0.75 mg of the active compound.
# Ear swelling was measured on Day 0 and thereafter 30 min before dosing on Days 2, 4, 6 and 8. On Day 10, ear swelling was measured 24 hours after the last dosing.
# [2] = test system: IMQ-induced psoriasis-like skin inflammation model; assay: Oral treatment in imiquimod (IMQ)-induced psoriasis-like skin inflammation; type: in vivo, BALB/c mice
# Method: The positive control, methotrexate at 2 mg/kg and tofacitinib at 5 mg/kg were administered by oral gavage twice (BID) daily during the same study period.
# Fifteen (15) mg Imiquimod (IMQ) cream (5%) (Aldara; 3M Pharmaceuticals) was topically (TOP) administered once daily (QD) on the right ear one hour after treatment from Day 1 to Day 9 for 9 consecutive days, translating to a daily dose of 0.75 mg of the active compound. Ear swelling was measured on Day 0 and thereafter 30 min before dosing on Days 2, 4, 6 and 8. On Day 10, ear swelling was measured 24 hours after the last dosing.
smiles,measurement,setting,value
"C[C@@H]1C[C@H]2[C@@H]3CCC4=CC(=O)C=C[C@]4(C)[C@@]3(F)[C@@H](O)C[C@]2(C)[C@@]1(O)C(=O)CO [dexamethasone, reference compound]",body weight,[1],significant (p<0.05) decrease
"C[C@@H]1CCN(C(=O)CC#N)C[C@@H]1N(C)c1ncnc2[nH]ccc12 [Tofacitinib, tofacitinib]",IMQ-induced ear swelling,"[2]; 5 mg/kg oral gavage BID, Day 8 to Day 10",significant (p<0.05) inhibition
CN(Cc1cnc2nc(N)nc(N)c2n1)c1ccc(C(=O)N[C@@H](CCC(=O)O)C(=O)O)cc1 [methotrexate],body weight,"[2]; 2 mg/kg PO BID×9 days, Day 9 to Day 10",significantly decreased
same,IMQ-induced ear swelling,"[2]; 2 mg/kg oral gavage BID, Day 8, vs vehicle group",significant (p<0.05) effect
